Like-named read-outs stand apart in the source and are kept apart here.
Assays:
[1] = NPH-insulin crystallisation in the presence of ligand (co-crystallisation); format: physicochemical; conditions: human insulin NPH crystals grown overnight with ligand equimolar to Zn2+, pH 7.3
Procedure: Preparation of NPH-insulin in the presence of ligands for the His^B10 Zn^2+-site of the R-state insulin hexamer.
Preparations are prepared by mixing equal volumes of the following two solutions: a) 1.2 mM human insulin, 0.46 mM Zn^2+, 28 mM phosphate, 1.6% glycerol, 0.15% m-cresol, 0.065% phenol, and 0.46 mM ligand for the HisB10 Zn^2+-site (see below), optionally the ligand was added as a 9.2 mM DMSO solution, pH 7.5; and b) 0.636 mg/mL protamine sulphate 1.6% glycerol, 0.15% m-cresol, 0.065% phenol, pH 6. The NPH-crystals grow overnight from the resulting suspension, pH 7.3.

[2] = biological target: T1, R-state His^B10 Zn^2+ site of insulin R6 hexamers (Homo sapiens, UniProt P01308); experiment: TZD-assay: fluorescence displacement of 5-(4-dimethylaminobenzylidene)thiazolidine-2,4-dione from insulin R6 hexamers; format: binding
T1 construct: human insulin comprising additional amino acids, i.e. more than 51 amino acids
T1 sequence (P01308 25-54 limits assumed): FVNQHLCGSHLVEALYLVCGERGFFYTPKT
T1 sequence (P01308 90-110 limits assumed): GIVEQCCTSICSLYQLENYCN
Procedure: However, ligands with substantially higher affinity for the His^B10 Zn^2+-site may be found and characterized by using a fluorescence based competition assay which is based on the displacement of 5-(4-dimethylaminobenzylidene)-thiazolidine-2,4-dione from the R-state His^B10 Zn^2+-site by the incoming ligand in question.
TZD-Assay for Quantitation of Ligands Binding to the R-State His^B10 Zn^2+:
The binding affinity of ligands to the metal site of insulin R6 hexamers are measured in a fluorescense based displacement assay. The fluorescence of 5-(4-dimethylaminobenzylidene)thiazolidine-2,4-dione (TZD) which is a ligand for the metal site of insulin R6 is quenched upon displacement from the metal site to the solution. Titration of a ligand to a stock solution of insulin R6 hexamers with this compound mounted in the metal site allows the binding affinity of these ligands to be determined measuring the fluorescence at 455 nm upon excitation at 410 nm.
Stock solution: 0.02 mM human insulin, 0.007 mM Zn-acetate, 40 mM phenol, 0.01 mM TZD in 50 mM tris buffer adjusted to pH=8.0 with NaOH/ClO4^−.
The ligand is dissolved in DMSO to a concentration of 5 mM and added in aliquots to the stock solution to final concentrations of 0-250 μM.
Fluorescence measurements were carried out on a Perkin Elmer Spectrofluorometer LS50B. The main absorption band was excited at 410 nm and emission was detected at 455 nm. The resolution was 10 nm and 2.5 nm for excitation and emission, respectively.
This equation is fitted to the datapoints ΔF(455 nm))=ΔFmax*[ligand]free/(KD(app)*(1+[TZD]/KTZD)+[ligand]free)) KD(app) is the apparent dissociation constant and Fmax is the fluorescence at maximal ligand concentration. The value of KTZD is measured separately to 230 nM
Two different fitting-procedures can be used. One in which both parameters, KD(app) and Fmax, are adjusted to best fit the data and a second in which the value of Fmax is fixed (Fmax=1) and only KD(app) is adjusted. The given data are from the second fitting procedure. The Solver module of Microsoft Excel can be used to generate the fits from the datapoints.

[3] = biological target: T2, metal site of insulin R6 hexamers (Homo sapiens, UniProt P01308); conditions: taken from Huang et al., 1997, Biochemistry 36, 9878-9888; read-out: K4H3N; cited from earlier work
T2 construct: human insulin comprising additional amino acids, i.e. more than 51 amino acids
T2 sequence (P01308 25-54 limits assumed): as the sequence (P01308 25-54 limits assumed) above

[4] = human insulin R6 hexamers, 40 mM phenol, tris pH 8.0, apparent KD, fit with Fmax fixed, read-out: Kd as observed in the 5-(4-imethylaminobenzylidene)-thiazolidine-2,4-dione assay

Structure (SMILES) | melting point [°C] | NPH-insulin crystal size [1] | Kd [2, 4] [nM] | further results
O=C1NC(=O)/C(=C/c2ccc3cc(O)ccc3c2)S1 [Example 171, 5-(6-Hydroxy-2-naphthylmethylene) thiazolidine-2,4-dione] | 310 to 314 | – | – | –
O=C1NC(=O)/C(=C/c2cc3ccccc3[nH]c2=O)S1 [Example 242, 5-(2-Oxo-1,2-dihydroquinolin-3-ylmethylene)thiazolidine-2,4-dione] | 338 to 347 | – | – | –
O=C(O)COc1ccc(/C=C2\SC(=O)NC2=O)c2ccccc12 [[4-(2,4-Dioxothiazolidin-5-ylidenemethyl)-naphthalen-1-yloxy]-acetic acid] | – | 2-10 μ | 11 | –
COc1cc(O)cc(OC)c1/C=C1\SC(=O)NC1=O [Example 234, 5-(4-Hydroxy-2,6-dimethoxybenzylidene)thiazolidine-2,4-dione] | 331 to 333 | – | – | –
O=C1NC(=O)/C(=C/c2cccc3ccccc23)S1 [5-Napthalen-1-ylmethylene-thiazolidine-2,4-dione] | – | 4-10 μ | 21 | –
CN(C)c1ccc(/C=C/C=C2\SC(=O)NC2=O)cc1 [Example 239, 5-[3-(4-Dimethylaminophenyl)allylidene]thiazolidine-2,4-dione] | 259 to 263 | – | – | –
O=C1NC(=O)C(Cc2cccc3ccccc23)S1 (centres unmarked) [5-Napthalen-1-ylmethyl-thiazolidine-2,4-dione] | – | 2 μ | 99 | –
c1ccc(Cn2c3ccccc3c3cc(-c4nnn[nH]4)ccc32)cc1 [9-Benzyl-3-(1H-tetrazol-5-yl)-9H-carbazole] | – | 1-3 μ | 68 | –
c1cc(COc2ccc3ccccc3c2)cc(-c2nnn[nH]2)c1 [Example 572, 5-(3-(Naphthalen-2-yloxymethyl)-phenyl)-1H-tetrazole] | 200 to 202 | – | – | –
O=C(O)c1cc2cc(Br)ccc2cc1O [7-Bromo-3-hydroxy-2-napthoic acid] | – | 5-20 μ | 264 | –
O=C1NC(=O)/C(=C/c2cc3ccccc3o2)S1 [Example 238, 5-Benzofuran-2-ylmethylenethiazolidine-2,4-dione] | 265 to 266 | – | – | –
Cc1cc(/C=C2\SC(=O)NC2=O)c(C)c2c1[nH]c1ccccc12 [5-(1,4-Dimethyl-9H-carbazol-3-ylmethylene)-thiazolidine-2,4-dione] | – | <2 μ | < 10 | –
Cc1cccc(C)c1/C=C1\SC(=O)NC1=O [Example 235, 5-(2,6-Dimethylbenzylidene)thiazolidine-2,4-dione] | 104 to 105 | – | – | –
CN(C)c1ccc(C=C2SC(O)=NC2=O)cc1 [TZD, 5-(4-dimethylaminobenzylidene)-thiazolidine-2,4-dione, reference compound] | – | – | – | Kd ([2]; measured separately, read-out: KTZD): 230 nM
COc1cccc(OC)c1/C=C1\SC(=O)NC1=O [Example 236, 5-(2,6-Dimethoxybenzylidene)thiazolidine-2,4-dione] | 241 to 242 | – | – | –
O=C(O)c1ccc(O)c([N+](=O)[O-])c1 [Example 4H3N, 4-hydroxy-3-nitrobenzoic acid] | – | – | – | Kd [3]: 50000 nM
COc1cc(OCc2c(F)cccc2[N+](=O)[O-])cc(OC)c1/C=C1\SC(=O)NC1=O [Example 237, 5-[4-(2-Fluoro-6-nitrobenzyloxy)-2,6-dimethoxybenzylidene]thiazolidine-2,4-dione] | 255 to 256 | – | – | –
COc1cc(/C=C2\SC(=O)NC2=O)cc(I)c1O [Example 167, 5-(4-Hydroxy-3-iodo-5-methoxybenzylidene)thiazolidine-2,4-dione] | 256 | – | – | –
c1ccc(-c2ccc(Cn3ccc4cc(-c5nnn[nH]5)ccc43)cc2)cc1 [1-(4-Phenylbenzyl)-5-(1H-tetrazol-5-yl)-1H-indole] | – | <2 μ | 38 | –
Cc1[nH]c2ccccc2c1/C=C1\SC(=O)NC1=O [5-(2-methyl-1H-indol-3-ylmethylene) thiazolidine-2,4-dione] | – | 2-6 μ | < 10 | –
O=C1NC(=O)C(=Cc2c[nH]c3ccc([N+](=O)[O-])cc23)S1 [Example 199, 5-(5-Nitro-1H-indol-3-ylmethylene)thiazolidine-2,4-dione] | 330 to 333 | – | – | –
CC(/C=C1\SC(=O)NC1=O)=C\c1ccccc1 [Example 240, 5-(2-Methyl-3-phenylallylidene)thiazolidine-2,4-dione] | 203 to 210 | – | – | –
O=C(O)c1ccc(Cn2c3ccccc3c3cc(-c4nnn[nH]4)ccc32)cc1 [4-[3-(1H-Tetrazol-5-yl)-carbazol-9-ylmethyl]-benzoic acid] | – | <2 μ | 174 | –
